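Grown in 96-well plates, cells were treated for 48 hours with each compound at five concentrations. Insufficient inhibition: endpoint recorded as highest concentration tested. At the TGI there is no net growth.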
system: OVCAR-4 ovarian; assay: DTP human tumour cell line panel, 48 h

Structure (SMILES)	TGI [µM]
OC1[C@@H]2[C@@H](O)[C@H](O)[C@@H](O)N2C[C@@H]1O (stereo not given in full)	> 100
OCC1OC(c2cccc3cc(O)c(O)cc23)CC1O (stereo not given)	> 100
CC(C)(Cl)C(Br)CCC(C)(Cl)C(Br)CBr (stereo not given)	87.3
O=C1NC(NNc2ccccc2)=N/C1=C\c1ccccc1O	> 100
Cc1cc(C)nc(NC(=O)c2ccc(Br)s2)c1	> 100
CC(C)(C)OC(=O)N1CCc2[nH][nH]c(=O)c2C1	> 100
COC(=O)c1cc2c3c(ccc2[nH]1)N(C(=O)c1cc2cc(OC)c(OC)c(OC)c2[nH]1)CC3CCl (stereo not given)	> 100
OCCCCCCCCCCCOc1ccc(C2OCC3(CO2)COC(c2ccc(OCCCCCCCCCCCO)cc2)OC3)cc1 (stereo not given)	> 50
COC(=O)c1ccc(C(=O)NC(Cc2ccc(Oc3cc(CC(NC(=O)c4ccccc4C(=O)OC)C(=O)OC)ccc3OC)cc2)C(=O)OC)cc1 (stereo not given)	> 100
COc1cc(C2SCC(=O)N2c2ccccn2)cc(OC)c1OC (stereo not given)	> 100
Nc1c2c(nc3cc(F)c(F)cc13)CCC2	> 100
Cc1cc2c(cc1Cl)SC(NS(=O)(=O)c1ccc(Cl)cc1)=NS2(=O)=O	> 100
CS(=O)(=O)O[C@H]1CN2C[C@@H](O)[C@@H](O)[C@H]2[C@H]1CO	> 100
CC1(C)CC(=O)c2[nH]c3ccccc3c2CC(=O)NCCc2cn1cn2	> 100
COC(=O)CCC1=CCC2(SC)C(=O)Nc3cccc1c32 (stereo not given)	> 100
CCCCc1c(N(C)C)c(OC(C)=O)c(-c2cn(C)c3ccccc23)oc1=O	> 100
CC(C)(C)[Si](C)(C)OCC1OC(n2ccc(N)nc2=O)C(O[Si](C)(C)C(C)(C)C)C1O[Si](C)(C)C(C)(C)C (stereo not given)	2.21
Nc1ccc2c(c1)N(C(=O)c1cc3cc(NC(=O)c4cc5ccccc5o4)ccc3[nH]1)CC2CCl (stereo not given)	3.71
O=C(O)c1ccc(N=C(C(=Nc2ccc(C(=O)O)cc2)c2ccccc2)c2ccccc2)cc1	> 100

system: CCRF-CEM leukemia; assay: DTP human tumour cell line panel, 48 h

Structure (SMILES)	TGI [µM]
OC1[C@@H]2[C@@H](O)[C@H](O)[C@@H](O)N2C[C@@H]1O (stereo not given in full)	> 100
CC(C)(Cl)C(Br)CCC(C)(Cl)C(Br)CBr (stereo not given)	76.9
Cc1cc(C)nc(NC(=O)c2ccc(Br)s2)c1	15.6
CC(C)(C)OC(=O)N1CCc2[nH][nH]c(=O)c2C1	> 100
COC(=O)c1cc2c3c(ccc2[nH]1)N(C(=O)c1cc2cc(OC)c(OC)c(OC)c2[nH]1)CC3CCl (stereo not given)	> 100
COC(=O)c1ccc(C(=O)NC(Cc2ccc(Oc3cc(CC(NC(=O)c4ccccc4C(=O)OC)C(=O)OC)ccc3OC)cc2)C(=O)OC)cc1 (stereo not given)	> 100
COc1cc(C2SCC(=O)N2c2ccccn2)cc(OC)c1OC (stereo not given)	> 100
Cc1cc2c(cc1Cl)SC(NS(=O)(=O)c1ccc(Cl)cc1)=NS2(=O)=O	> 100
CS(=O)(=O)O[C@H]1CN2C[C@@H](O)[C@@H](O)[C@H]2[C@H]1CO	> 100
COC(=O)CCC1=CCC2(SC)C(=O)Nc3cccc1c32 (stereo not given)	> 100
CCCCc1c(N(C)C)c(OC(C)=O)c(-c2cn(C)c3ccccc23)oc1=O	> 100

system: A549 NSCLC; assay: DTP human tumour cell line panel, 48 h

Structure (SMILES)	TGI [µM]
OC1[C@@H]2[C@@H](O)[C@H](O)[C@@H](O)N2C[C@@H]1O (stereo not given in full)	> 100
OCC1OC(c2cccc3cc(O)c(O)cc23)CC1O (stereo not given)	> 100
CC(C)(Cl)C(Br)CCC(C)(Cl)C(Br)CBr (stereo not given)	> 100
O=C1NC(NNc2ccccc2)=N/C1=C\c1ccccc1O	> 100
Cc1cc(C)nc(NC(=O)c2ccc(Br)s2)c1	> 100
CC(C)(C)OC(=O)N1CCc2[nH][nH]c(=O)c2C1	> 100
COC(=O)c1cc2c3c(ccc2[nH]1)N(C(=O)c1cc2cc(OC)c(OC)c(OC)c2[nH]1)CC3CCl (stereo not given)	> 100
OCCCCCCCCCCCOc1ccc(C2OCC3(CO2)COC(c2ccc(OCCCCCCCCCCCO)cc2)OC3)cc1 (stereo not given)	> 50
O=Cc1cn(CCCCCCCCCCCCn2cc(C=O)c3ccccc32)c2ccccc12	> 100
COC(=O)c1ccc(C(=O)NC(Cc2ccc(Oc3cc(CC(NC(=O)c4ccccc4C(=O)OC)C(=O)OC)ccc3OC)cc2)C(=O)OC)cc1 (stereo not given)	> 100
COc1cc(C2SCC(=O)N2c2ccccn2)cc(OC)c1OC (stereo not given)	> 100
Nc1c2c(nc3cc(F)c(F)cc13)CCC2	> 100
Cc1cc2c(cc1Cl)SC(NS(=O)(=O)c1ccc(Cl)cc1)=NS2(=O)=O	> 100
CS(=O)(=O)O[C@H]1CN2C[C@@H](O)[C@@H](O)[C@H]2[C@H]1CO	> 100
CC1(C)CC(=O)c2[nH]c3ccccc3c2CC(=O)NCCc2cn1cn2	> 100
COC(=O)CCC1=CCC2(SC)C(=O)Nc3cccc1c32 (stereo not given)	> 100
CCCCc1c(N(C)C)c(OC(C)=O)c(-c2cn(C)c3ccccc23)oc1=O	> 100
CC(C)(C)[Si](C)(C)OCC1OC(n2ccc(N)nc2=O)C(O[Si](C)(C)C(C)(C)C)C1O[Si](C)(C)C(C)(C)C (stereo not given)	11.6
Nc1ccc2c(c1)N(C(=O)c1cc3cc(NC(=O)c4cc5ccccc5o4)ccc3[nH]1)CC2CCl (stereo not given)	> 34.1
O=C(O)c1ccc(N=C(C(=Nc2ccc(C(=O)O)cc2)c2ccccc2)c2ccccc2)cc1	> 100

system: NCI-H460 lung; assay: DTP human tumour cell line panel, 48 h

Structure (SMILES)	TGI [µM]
OC1[C@@H]2[C@@H](O)[C@H](O)[C@@H](O)N2C[C@@H]1O (stereo not given in full)	> 100
OCC1OC(c2cccc3cc(O)c(O)cc23)CC1O (stereo not given)	> 100
CC(C)(Cl)C(Br)CCC(C)(Cl)C(Br)CBr (stereo not given)	40.5
O=C1NC(NNc2ccccc2)=N/C1=C\c1ccccc1O	> 100
Cc1cc(C)nc(NC(=O)c2ccc(Br)s2)c1	> 100
CC(C)(C)OC(=O)N1CCc2[nH][nH]c(=O)c2C1	> 100
COC(=O)c1cc2c3c(ccc2[nH]1)N(C(=O)c1cc2cc(OC)c(OC)c(OC)c2[nH]1)CC3CCl (stereo not given)	> 100
OCCCCCCCCCCCOc1ccc(C2OCC3(CO2)COC(c2ccc(OCCCCCCCCCCCO)cc2)OC3)cc1 (stereo not given)	> 50
COC(=O)c1ccc(C(=O)NC(Cc2ccc(Oc3cc(CC(NC(=O)c4ccccc4C(=O)OC)C(=O)OC)ccc3OC)cc2)C(=O)OC)cc1 (stereo not given)	> 100
COc1cc(C2SCC(=O)N2c2ccccn2)cc(OC)c1OC (stereo not given)	> 100
Nc1c2c(nc3cc(F)c(F)cc13)CCC2	54
Cc1cc2c(cc1Cl)SC(NS(=O)(=O)c1ccc(Cl)cc1)=NS2(=O)=O	> 100
CS(=O)(=O)O[C@H]1CN2C[C@@H](O)[C@@H](O)[C@H]2[C@H]1CO	> 100
CC1(C)CC(=O)c2[nH]c3ccccc3c2CC(=O)NCCc2cn1cn2	> 100
COC(=O)CCC1=CCC2(SC)C(=O)Nc3cccc1c32 (stereo not given)	> 100
CCCCc1c(N(C)C)c(OC(C)=O)c(-c2cn(C)c3ccccc23)oc1=O	> 100
CC(C)(C)[Si](C)(C)OCC1OC(n2ccc(N)nc2=O)C(O[Si](C)(C)C(C)(C)C)C1O[Si](C)(C)C(C)(C)C (stereo not given)	3.7
Nc1ccc2c(c1)N(C(=O)c1cc3cc(NC(=O)c4cc5ccccc5o4)ccc3[nH]1)CC2CCl (stereo not given)	> 32.8
O=C(O)c1ccc(N=C(C(=Nc2ccc(C(=O)O)cc2)c2ccccc2)c2ccccc2)cc1	> 100

system: MCF7 breast; assay: DTP human tumour cell line panel, 48 h

Structure (SMILES)	TGI [µM]
OC1[C@@H]2[C@@H](O)[C@H](O)[C@@H](O)N2C[C@@H]1O (stereo not given in full)	> 100
OCC1OC(c2cccc3cc(O)c(O)cc23)CC1O (stereo not given)	> 100
CC(C)(Cl)C(Br)CCC(C)(Cl)C(Br)CBr (stereo not given)	41.7
O=C1NC(NNc2ccccc2)=N/C1=C\c1ccccc1O	> 100
Cc1cc(C)nc(NC(=O)c2ccc(Br)s2)c1	> 100
CC(C)(C)OC(=O)N1CCc2[nH][nH]c(=O)c2C1	> 100
COC(=O)c1cc2c3c(ccc2[nH]1)N(C(=O)c1cc2cc(OC)c(OC)c(OC)c2[nH]1)CC3CCl (stereo not given)	> 100
OCCCCCCCCCCCOc1ccc(C2OCC3(CO2)COC(c2ccc(OCCCCCCCCCCCO)cc2)OC3)cc1 (stereo not given)	> 50
O=Cc1cn(CCCCCCCCCCCCn2cc(C=O)c3ccccc32)c2ccccc12	> 100
COC(=O)c1ccc(C(=O)NC(Cc2ccc(Oc3cc(CC(NC(=O)c4ccccc4C(=O)OC)C(=O)OC)ccc3OC)cc2)C(=O)OC)cc1 (stereo not given)	> 100
COc1cc(C2SCC(=O)N2c2ccccn2)cc(OC)c1OC (stereo not given)	> 100
Nc1c2c(nc3cc(F)c(F)cc13)CCC2	> 100
Cc1cc2c(cc1Cl)SC(NS(=O)(=O)c1ccc(Cl)cc1)=NS2(=O)=O	> 100
CS(=O)(=O)O[C@H]1CN2C[C@@H](O)[C@@H](O)[C@H]2[C@H]1CO	> 100
CC1(C)CC(=O)c2[nH]c3ccccc3c2CC(=O)NCCc2cn1cn2	> 100
COC(=O)CCC1=CCC2(SC)C(=O)Nc3cccc1c32 (stereo not given)	> 100
CCCCc1c(N(C)C)c(OC(C)=O)c(-c2cn(C)c3ccccc23)oc1=O	39.6
CC(C)(C)[Si](C)(C)OCC1OC(n2ccc(N)nc2=O)C(O[Si](C)(C)C(C)(C)C)C1O[Si](C)(C)C(C)(C)C (stereo not given)	5.33
Nc1ccc2c(c1)N(C(=O)c1cc3cc(NC(=O)c4cc5ccccc5o4)ccc3[nH]1)CC2CCl (stereo not given)	2.38
O=C(O)c1ccc(N=C(C(=Nc2ccc(C(=O)O)cc2)c2ccccc2)c2ccccc2)cc1	> 100

system: HL-60(TB) leukemia; assay: DTP human tumour cell line panel, 48 h

Structure (SMILES)	TGI [µM]
OCC1OC(c2cccc3cc(O)c(O)cc23)CC1O (stereo not given)	> 100
